Assays:
[1] = molecular target: His-tagged human recombinant kinase full-length Akt2 activated by PDK1 (Homo sapiens (Human), UniProt P31751); test: Akt2 kinase assay (Akt2 TR-FRET assay, Biological Assay 2.0); type: biochemical; conditions: 10 μM ATP, 1 μM biotinylated peptide substrate, 60 min at 22° C.
Outline: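 Compound was pre-incubated with enzyme (~0.2 ng/µl final) for 15 min at 22 °C in Tris pH 7.5, 5 mM MgCl2, then reacted 60 min with 10 µM ATP and 1 µM biotinylated peptide. Phosphopeptide was detected by TR-FRET (665/622 nm ratio). Data were normalised to no-inhibitor (0%) and no-enzyme (100%) controls.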

[2] = molecular target: His-tagged human recombinant kinase full-length Akt1 (Homo sapiens (Human), UniProt P31749); test: Akt1 kinase assay (Akt1 TR-FRET assay, Biological Assay 1.0); type: biochemical; conditions: 10 μM ATP, 1 μM biotinylated peptide substrate, 60 min at 22° C.
Chain of His-tagged human recombinant kinase full-length Akt1 (P31749 whole entry): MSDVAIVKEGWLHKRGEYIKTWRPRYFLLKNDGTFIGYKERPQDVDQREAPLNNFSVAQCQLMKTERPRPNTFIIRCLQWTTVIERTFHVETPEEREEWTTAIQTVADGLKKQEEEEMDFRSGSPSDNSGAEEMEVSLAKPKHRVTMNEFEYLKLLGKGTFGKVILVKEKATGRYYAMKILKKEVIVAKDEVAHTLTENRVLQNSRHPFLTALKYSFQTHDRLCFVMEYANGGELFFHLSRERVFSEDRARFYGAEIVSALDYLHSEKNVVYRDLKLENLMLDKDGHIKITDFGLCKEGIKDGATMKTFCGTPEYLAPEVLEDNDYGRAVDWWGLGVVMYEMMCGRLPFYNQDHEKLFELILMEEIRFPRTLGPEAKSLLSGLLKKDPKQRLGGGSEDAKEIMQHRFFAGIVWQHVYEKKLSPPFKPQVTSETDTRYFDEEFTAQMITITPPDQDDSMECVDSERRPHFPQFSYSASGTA
Outline: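 Insect-cell-expressed full-length His-Akt1 (~0.05 ng/μl) preincubated 15 min with compound, then reacted 60 min at 22 °C with 10 μM ATP and 1 μM biotinylated peptide (final), pH 7.5. Phosphopeptide detected by HTRF (665/620 nm ratio). Data normalised to no-inhibitor and no-enzyme controls.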

Chain of His-tagged human recombinant kinase full-length Akt2 activated by PDK1 (P31751 whole entry): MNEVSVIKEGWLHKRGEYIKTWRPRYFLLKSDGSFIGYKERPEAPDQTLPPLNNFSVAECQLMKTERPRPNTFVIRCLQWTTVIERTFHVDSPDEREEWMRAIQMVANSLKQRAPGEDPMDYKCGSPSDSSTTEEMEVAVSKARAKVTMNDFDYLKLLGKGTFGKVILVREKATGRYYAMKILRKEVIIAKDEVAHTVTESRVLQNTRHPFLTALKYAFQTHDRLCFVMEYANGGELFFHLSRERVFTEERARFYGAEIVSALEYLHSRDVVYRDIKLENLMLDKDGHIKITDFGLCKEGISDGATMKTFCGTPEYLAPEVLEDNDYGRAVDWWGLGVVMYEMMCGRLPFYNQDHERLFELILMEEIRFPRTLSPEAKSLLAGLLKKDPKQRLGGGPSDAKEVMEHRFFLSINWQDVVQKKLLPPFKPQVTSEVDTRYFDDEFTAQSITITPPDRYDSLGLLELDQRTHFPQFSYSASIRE

Structure (SMILES) | melting point | IC50 [1] | IC50 [2]
Cc1nc2nc(-c3ccc(CN4CC(c5n[nH]c(-c6ccccn6)n5)C4)cc3)c(-c3ccccc3)c(NC(C)C)n2n1 [Example 45.2, isopropyl-(2-methyl-6-phenyl-5-{4-[3-(5-pyridin-2-yl-1H-[1,2,4]triazol-3-yl)-azetidin-1-ylmethyl]-phenyl}-[1,2,4]triazolo[1,5-a]pyrimidin-7-yl)-amine] | 176.8 °C | – | –
CNc1c(-c2ccccc2)c(-c2ccc(CN3CC(c4n[nH]c(-c5cccc(C)n5)n4)C3)cc2)nc2nc(C)cn12 [Example 61.0, methyl-(2-methyl-7-{4-{3-[5-(6-methylpyridine-2-yl)-1H-[1,2,4]triazole-3-yl)-azetidine-1-ylmethyl]-phenyl}-6-phenyl-imidazo[1,2-a]pyrimidin-5-yl)-amine] | – | 19 nM | 11 nM
OCc1cnn2cc(-c3c(F)cccc3F)c(-c3ccc(CN4CC(c5n[nH]c(-c6ccccn6)n5)C4)cc3)nc12 [Example 62.0, (6-(2,6-difluorophenyl)-5-{4-[3-[5-pyridine-2-yl-1H-[1,2,4]triazole-3-yl)-azetidine-1-ylmethyl]-phenyl}-pyrazolo[1,5-a]pyrimidin-3-yl)-methanol] | – | 801 nM | 55 nM
COc1nn2cc(-c3c(F)cccc3F)c(-c3ccc(CN4CC(c5n[nH]c(-c6ccccn6)n5)C4)cc3)nc2c1CO [Example 63.0, (6-(2,6-difluorophenyl)-2-methoxy-5-{4-[3-[5-pyridine-2-yl-1H-[1,2,4]triazole-3-yl)-azetidine-1-ylmethyl]-phenyl}-pyrazolo[1,5-a]pyrimidin-3-yl)-methanol] | – | 118 nM | 14 nM
COc1nn2cc(-c3c(F)cccc3F)c(-c3ccc(CN4CC(c5n[nH]c(-c6cccc(C)n6)n5)C4)cc3)nc2c1CO [Example 63.1] | – | 34 nM | 8 nM
COc1nn2cc(-c3c(F)cccc3F)c(-c3ccc(CN4CCC(c5n[nH]c(-c6cccc(C)n6)n5)CC4)cc3)nc2c1CO [Example 63.2] | – | 108 nM | 18 nM
Cc1cn2c(NC(C)C)c(-c3ccccc3)c(-c3ccc(CN4CC(c5n[nH]c(-c6ccccn6)n5)C4)cc3)nc2n1 [Example 64.0, isopropyl-(2-methyl-6-phenyl-7-{4-{3-[5-(pyridine-2-yl)-1H-[1,2,4]triazole-3-yl)-azetidine-1-ylmethyl]-phenyl}-imidazo[1,2-a]pyrimidin-5-yl)-amine] | – | 39 nM | 30 nM
Cc1cccc(-c2nc(C3CN(Cc4ccc(-c5nc6nc(C)cn6c(NC(C)C)c5-c5ccccc5)cc4)C3)n[nH]2)n1 [Example 65.0, isopropyl-(2-methyl-6-phenyl-7-{4-{3-[5-(6-methylpyridine-2-yl)-1H-[1,2,4]triazole-3-yl)-azetidine-1-ylmethyl]-phenyl}-imidazo[1,2-a]pyrimidin-5-yl)-amine] | – | 36 nM | 33 nM
CC(C)Nc1c(-c2ccccc2)c(-c2ccc(CN3CC(c4n[nH]c(-c5ccccn5)n4)C3)cc2)nc2nc(-c3ccccn3)nn12 [Example 68.0] | – | 88 nM | 24 nM
Cc1cccc(-c2nc(C3CN(Cc4ccc(-c5nc6nc(-c7ccccn7)nn6c(NC(C)C)c5-c5ccccc5)cc4)C3)n[nH]2)n1 [Example 69.0, isopropyl-(6-phenyl-2-pyridine-2-yl-5-{4-[3-[5-(6-methylpyridine-2-yl)-1H-[1,2,4]triazole-3-yl)-azetidine-1-ylmethyl]-phenyl}-[1,2,4]triazolo[1,5-a]pyrimidin-7-yl)-amine] | – | 16 nM | 14 nM

Next, values leading:

melting point | IC50 [1] | IC50 [2] | Structure (SMILES)
– | 97 nM | 10 nM | COc1nn2cc(-c3c(F)cccc3F)c(-c3ccc(CN4CCC(c5n[nH]c(-c6ccccn6)n5)CC4)cc3)nc2c1CO [Example 63.3, (6-(2,6-difluorophenyl)-2-methoxy-5-{4-[4-(5-pyridine-2-yl-1H-[1,2,4]triazole-3-yl)-piperidine-1-ylmethyl]-phenyl}-pyrazolo[1,5-a]pyrimidin-3-yl)-methanol]
– | 53 nM | 25 nM | CC(C)Nc1c(-c2ccccc2)c(-c2ccc(CN3CC(c4n[nH]c(-c5ccccn5)n4)C3)cc2)nc2nccn12 [Example 66.0, isopropyl-(6-phenyl-7-{4-{3-[5-(pyridine-2-yl)-1H-[1,2,4]triazole-3-yl)-azetidine-1-ylmethyl]-phenyl}-imidazo[1,2-a]pyrimidin-5-yl)-amine]
– | 145 nM | 29 nM | CNc1c(-c2ccccc2)c(-c2ccc(CN3CC(c4n[nH]c(-c5ccccn5)n4)C3)cc2)nc2nc(-c3ccccn3)nn12 [Example 67.0]
– | 5 nM | 7 nM | c1ccc(-c2cn3nc(C4CC4)nc3nc2-c2ccc(CN3CC(c4n[nH]c(-c5ccccn5)n4)C3)cc2)cc1 [Example 70.0]
– | 4 nM | 5 nM | CSc1nc2nc(-c3ccc(CN4CC(c5n[nH]c(-c6cccc(C)n6)n5)C4)cc3)c(-c3ccccc3)cn2n1 [Example 71.0, 5-(4-{3-[5-(6-methyl-pyridin-2-yl)-1H-[1,2,4]triazol-3-yl]-azetidin-1-ylmethyl}-phenyl)-2-methylsulfanyl-6-phenyl-[1,2,4]triazolo[1,5-a]pyrimidine]
– | 222 nM | 77 nM | CSc1nc2nc(-c3ccc(CN4CCC(c5n[nH]c(-c6ncccn6)n5)CC4)cc3)c(-c3ccccc3)cn2n1 [Example 72.2, 2-methylsulfanyl-6-phenyl-5-{4-[4-(5-pyrimidin-2-yl-1H-[1,2,4]triazol-3-yl)-piperidin-1-ylmethyl]-phenyl}-[1,2,4]triazolo[1,5-a]pyrimidine]
– | 80 nM | 26 nM | CSc1nc2nc(-c3ccc(CN4CCC(c5n[nH]c(-c6cnccn6)n5)CC4)cc3)c(-c3ccccc3)cn2n1 [Example 72.3, 2-methylsulfanyl-6-phenyl-5-{4-[4-(5-pyrazin-2-yl-1H-[1,2,4]triazol-3-yl)-piperidin-1-ylmethyl]-phenyl}-[1,2,4]triazolo[1,5-a]pyrimidine]
– | 14 nM | 12 nM | COC(=O)c1cn2cc(-c3ccccc3)c(-c3ccc(CN4CC(c5n[nH]c(-c6cccc(C)n6)n5)C4)cc3)nc2n1 [Example 74.0, 7-(4-{3-[5-(6-methylpyridine-2-yl)-1H-[1,2,4]triazole-3-yl]-azetidine-1-ylmethyl}-phenyl)-6-phenyl-imidazo[1,2-a]pyrimidine-2-carboxylic acid methyl ester]
– | 17 nM | 10 nM | COC(=O)c1cn2cc(-c3ccccc3)c(-c3ccc(CN4CC(c5n[nH]c(-c6ccccn6)n5)C4)cc3)nc2n1 [Example 74.1, 6-phenyl-7-{4-[3-[5-pyridine-2-yl-1H-[1,2,4]triazole-3-yl)azetidine-1-ylmethyl]-phenyl}-imidazo[1,2-a]pyrimidine-2-carboxylic acid methyl ester]
– | 124 nM | 72 nM | OCc1cn2cc(-c3ccccc3)c(-c3ccc(CN4CC(c5n[nH]c(-c6ccccn6)n5)C4)cc3)nc2n1 [Example 75.0]
– | 154 nM | 60 nM | Cc1nc2nc(-c3ccc(CN4CCC(c5n[nH]c(-c6ccccn6)n5)CC4)cc3)c(-c3cc(F)ccc3F)cn2n1 [Example 76.0, 6-(2,5-difluorophenyl)-2-methyl-5-{4-[4-(5-pyridine-2-yl-1H-[1,2,4]triazole-3-yl)-piperidine-1-ylmethyl]-phenyl}-[1,2,4]triazolo[1,5-a]pyrimidine]

Reference: patent publication US8957064B2, “Fused pyrimidines” (Bayer Intellectual Property GmbH, priority 2009, dated 2015)
